Experimental data from EP4714953A1, “MELANOCORTIN 2-TYPE RECEPTOR ANTAGONIST” (Scohia Pharma, Inc., priority 2023, dated 2024).
Values belong to the molecule of their own block, whether it stands above or below them.

What was measured:
human MC2R = biological target: T1, human MC2R (Homo sapiens, UniProt Q01718); experiment: Measurement of human MC2R inhibitory activity using intracellular cAMP concentration as an indicator; type: cell-based; settings: test compound at 1 µM; GeneBLAzer MC2R-CRE-bla CHO-K1 cells; ACTH (Human 1-24) final concentration 3 pM; intracellular cAMP by HTRF; read-out: MC2R inhibition rate (% of inhibition)
T1 construct: host or cells: GeneBLAzer MC2R-CRE-bla CHO-K1 cells
In short: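 MC2R-CRE-bla CHO-K1 cells at 1,500/well in HBSS with 10 mM HEPES pH 7.5, 0.01% BSA and 500 µM IBMX, preincubated 20 min with compound, then stimulated with 3 pM ACTH(1-24) for 30 min at room temperature. cAMP read by HTRF; % inhibition from the ACTH-stimulated and unstimulated windows.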

[1] = system: ACTH-induced corticosterone secretion; experiment: Suppressive action of ACTH-induced corticosterone secretion in mice; type: in vivo; settings: 10 mg/kg, p.o.; male ICR mice; ACTH (1-24) 100 µg/kg subcutaneously 1 hr later; AUC up to 2 hr after ACTH administration
Protocol: Experimental Example 2: Suppressive action of ACTH-induced corticosterone secretion in mice
Nine-week-old male ICR mice (CHARLES RIVER LABORATORIES JAPAN, INC.) were used in the test.
The mice were assigned to each group based on body weight, with 5 mice per group. Test compounds were suspended in 0.5% (w/v) methylcellulose solution. ACTH (1-24) (A0948, LKT Laboratories, Inc.) was dissolved in saline. The test compound (10 mg/kg) or vehicle was orally administered to mice, and 1 hr later, ACTH solution (100 µg/kg) was administered subcutaneously. Blood was collected from the tail vein before ACTH administration and 0.5, 1, and 2 hr after administration, and corticosterone concentration in plasma was measured using an ELISA kit (EC3001-1, Assaypro). Using the plasma corticosterone concentration at each time point, the area under the blood concentration-time curve up to 2 hr after administration (AUC0-2h) was calculated.

T1 sequence (Q01718 whole entry): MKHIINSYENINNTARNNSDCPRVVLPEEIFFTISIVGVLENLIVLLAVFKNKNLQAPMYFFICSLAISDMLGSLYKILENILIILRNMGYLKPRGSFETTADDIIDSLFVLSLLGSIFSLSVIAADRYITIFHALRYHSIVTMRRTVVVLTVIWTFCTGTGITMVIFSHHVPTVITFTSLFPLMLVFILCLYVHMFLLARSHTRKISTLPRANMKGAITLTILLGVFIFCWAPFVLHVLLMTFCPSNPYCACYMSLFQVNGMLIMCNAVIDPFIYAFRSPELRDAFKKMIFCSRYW
T1 sequence (Q8TCY5 whole entry partner): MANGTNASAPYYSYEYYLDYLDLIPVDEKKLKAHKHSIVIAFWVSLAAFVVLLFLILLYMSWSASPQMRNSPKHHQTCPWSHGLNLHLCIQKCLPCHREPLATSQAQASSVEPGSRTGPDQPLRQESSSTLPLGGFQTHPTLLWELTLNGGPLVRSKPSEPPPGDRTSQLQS

Structure (SMILES): CCOc1ncccc1-c1ccc(N2C[C@H]3CN(c4ccc(Cl)cc4C(F)(F)F)C(=O)N3C[C@H]2CC)c(C(=O)N[C@H]2CNC(=O)C2)n1 [Example 38, 3-[(6R,8aS)-2-[4-chloro-2-(trifluoromethyl)phenyl]-6-ethyl-3-oxo-5,6,8,8a-tetrahydro-1H-imidazo[1,5-a]pyrazin-7-yl]-6-(2-ethoxypyridin-3-yl)-N-[(3R)-5-oxopyrrolidin-3-yl]pyridine-2-carboxamide]
inhibition at 1 µM (human MC2R): 100% | plasma corticosterone AUC0-2h (% of vehicle, mean±S.D.) [1]: 14.2 ± 4.3 % of vehicle

Structure (SMILES): CCOc1ncccc1-c1ccc(N2C[C@H]3CN(c4ccc(Cl)cc4C(F)(F)F)C(=O)N3C[C@H]2CC)c(C(=O)N[C@@H]2CCNC2)n1 [Example 31, 3-[(6R,8aS)-2-[4-chloro-2-(trifluoromethyl)phenyl]-6-ethyl-3-oxo-5,6,8,8a-tetrahydro-1H-imidazo[1,5-a]pyrazin-7-yl]-6-(2-ethoxypyridin-3-yl)-N-[(3R)-pyrrolidin-3-yl]pyridine-2-carboxamide]
inhibition at 1 µM (human MC2R): 100% | plasma corticosterone AUC0-2h (% of vehicle, mean±S.D.) [1]: 61.1 ± 7.3 % of vehicle

Structure (SMILES): CCOc1ncccc1-c1ccc(N2C[C@H]3CN(c4ccc(Cl)cc4C(F)(F)F)C(=O)N3C[C@H]2CC)c(C(=O)N[C@@H]2CCNC2=O)n1 [Example 47, 3-[(6R,8aS)-2-[4-chloro-2-(trifluoromethyl)phenyl]-6-ethyl-3-oxo-5,6,8,8a-tetrahydro-1H-imidazo[1,5-a]pyrazin-7-yl]-6-(2-ethoxypyridin-3-yl)-N-[(3R)-2-oxopyrrolidin-3-yl]pyridine-2-carboxamide]
inhibition at 1 µM (human MC2R): 100% | plasma corticosterone AUC0-2h (% of vehicle, mean±S.D.) [1]: 17.5 ± 4.4 % of vehicle

Structure (SMILES): CCOc1ncccc1-c1ccc(N2C[C@H]3CN(c4ccc(C(F)(F)F)cc4C#N)C(=O)N3C[C@H]2CC)c(C(=O)N[C@@H]2CC(=O)N(C)C2)n1 [Example 57, 3-[(6R,8aS)-2-[2-cyano-4-(trifluoromethyl)phenyl]-6-ethyl-3-oxo-5,6,8,8a-tetrahydro-1H-imidazo[1,5-a]pyrazin-7-yl]-6-(2-ethoxypyridin-3-yl)-N-[(3R)-1-methyl-5-oxopyrrolidin-3-yl]pyridine-2-carboxamide]
inhibition at 1 µM (human MC2R): 100%

Structure (SMILES): CCOc1ncccc1-c1ccc(N2CCN3C(=O)N(c4ccc(Cl)cc4C(F)(F)F)C[C@@H]3C2)c(C(=O)NC2CCNC2)n1 (stereo partly drawn) [Example 28, 3-[(8aS)-2-[4-chloro-2-(trifluoromethyl)phenyl]-3-oxo-5,6,8,8a-tetrahydro-1H-imidazo[1,5-a]pyrazin-7-yl]-6-(2-ethoxypyridin-3-yl)-N-pyrrolidin-3-ylpyridine-2-carboxamide]
inhibition at 1 µM (human MC2R): 100%

Structure (SMILES): COc1ccccc1-c1ccc(N2C[C@H]3CN(c4ccc(Cl)cc4C(F)(F)F)C(=O)N3C[C@H]2C)c(C(=O)N[C@@H]2CC(=O)N(C)C2)n1 [Example 64, 3-[(6R,8aS)-2-[4-chloro-2-(trifluoromethyl)phenyl]-6-methyl-3-oxo-5,6,8,8a-tetrahydro-1H-imidazo[1,5-a]pyrazin-7-yl]-6-(2-methoxyphenyl)-N-[(3R)-1-methyl-5-oxopyrrolidin-3-yl]pyridine-2-carboxamide]
inhibition at 1 µM (human MC2R): 95%

Structure (SMILES): CCOc1ncccc1-c1ccc(N2C[C@H]3CN(c4ccc(Cl)cc4C(F)(F)F)C(=O)N3C[C@H]2CC)c(C(=O)N[C@@H]2CNC(=O)C2)n1 [Example 39, 3-[(6R,8aS)-2-[4-chloro-2-(trifluoromethyl)phenyl]-6-ethyl-3-oxo-5,6,8,8a-tetrahydro-1H-imidazo[1,5-a]pyrazin-7-yl]-6-(2-ethoxypyridin-3-yl)-N-[(3S)-5-oxopyrrolidin-3-yl]pyridine-2-carboxamide]
inhibition at 1 µM (human MC2R): 100%

Structure (SMILES): CCOc1ncccc1-c1ccc(N2CCN3C(=O)N(c4ccc(Cl)cc4C(F)(F)F)C[C@@H]3C2)c(C(=O)NCCC2CCOCC2)n1 [Example 13, 3-[(8aS)-2-[4-chloro-2-(trifluoromethyl)phenyl]-3-oxo-5,6,8,8a-tetrahydro-1H-imidazo[1,5-a]pyrazin-7-yl]-6-(2-ethoxypyridin-3-yl)-N-[2-(oxan-4-yl)ethyl]pyridine-2-carboxamide]
inhibition at 1 µM (human MC2R): 99%

Structure (SMILES): CCOc1ncccc1-c1ccc(N2CCN3C(=O)N(c4ccc(Cl)cc4C(F)(F)F)CC3C2)c(C=O)n1 (stereo not shown) [Example 1, 3-[2-[4-chloro-2-(trifluoromethyl)phenyl]-3-oxo-5,6,8,8a-tetrahydro-1H-imidazo[1,5-a]pyrazin-7-yl]-6-(2-ethoxypyridin-3-yl)pyridine-2-carbaldehyde]
inhibition at 1 µM (human MC2R): 100%

Structure (SMILES): CCOc1ccccc1-c1ccc(N2C[C@H]3CN(c4ccc(Cl)cc4C(F)(F)F)C(=O)N3C[C@H]2C)c(C(=O)N[C@@H]2CC(=O)N(C)C2)n1 [Example 63, 3-[(6R,8aS)-2-[4-chloro-2-(trifluoromethyl)phenyl]-6-methyl-3-oxo-5,6,8,8a-tetrahydro-1H-imidazo[1,5-a]pyrazin-7-yl]-6-(2-ethoxyphenyl)-N-[(3R)-1-methyl-5-oxopyrrolidin-3-yl]pyridine-2-carboxamide]
inhibition at 1 µM (human MC2R): 100%

Structure (SMILES): CCOc1ncccc1-c1ccc(N2CCN3C(=O)N(c4ccc(Cl)cc4C(F)(F)F)C[C@@H]3C2)c(C(=O)NCCCn2cccn2)n1 [Example 22, 3-[(8aS)-2-[4-chloro-2-(trifluoromethyl)phenyl]-3-oxo-5,6,8,8a-tetrahydro-1H-imidazo[1,5-a]pyrazin-7-yl]-6-(2-ethoxypyridin-3-yl)-N-(3-pyrazol-1-ylpropyl)pyridine-2-carboxamide]
inhibition at 1 µM (human MC2R): 100%

Structure (SMILES): COc1ncccc1-c1ccc(N2C[C@H]3CN(c4ccc(Cl)cc4C(F)(F)F)C(=O)N3C[C@H]2C)c(C(=O)N[C@@H]2CC(=O)N(C)C2)n1 [Example 61, 3-[(6R,8aS)-2-[4-chloro-2-(trifluoromethyl)phenyl]-6-methyl-3-oxo-5,6,8,8a-tetrahydro-1H-imidazo[1,5-a]pyrazin-7-yl]-6-(2-methoxy-3-pyridinyl)-N-[(3R)-1-methyl-5-oxopyrrolidin-3-yl]pyridine-2-carboxamide]
inhibition at 1 µM (human MC2R): 97%

Further lines, with some results ahead:

inhibition at 1 µM (human MC2R): 96%
Structure (SMILES): CCOc1ncccc1-c1ccc(N2C[C@H]3CN(c4ccc(Cl)cc4C(F)(F)F)C(=O)N3C[C@H]2CC)c(C(=O)NC[C@H](C)O)n1 [Example 34, 3-[(6R,8aS)-2-[4-chloro-2-(trifluoromethyl)phenyl]-6-ethyl-3-oxo-5,6,8,8a-tetrahydro-1H-imidazo[1,5-a]pyrazin-7-yl]-6-(2-ethoxypyridin-3-yl)-N-[(2S)-2-hydroxypropyl]pyridine-2-carboxamide]
plasma corticosterone AUC0-2h (% of vehicle, mean±S.D.) [1]: 15.6 ± 4.9 % of vehicle

inhibition at 1 µM (human MC2R): 100%
Structure (SMILES): CCOc1ncccc1-c1ccc(N2C[C@H]3CN(c4ccc(Cl)cc4C(F)(F)F)C(=O)N3C[C@H]2CC)c(C(=O)NCC2(O)COC2)n1 [Example 30, 3-[(6R,8aS)-2-[4-chloro-2-(trifluoromethyl)phenyl]-6-ethyl-3-oxo-5,6,8,8a-tetrahydro-1H-imidazo[1,5-a]pyrazin-7-yl]-6-(2-ethoxypyridin-3-yl)-N-[(3-hydroxyoxetan-3-yl)methyl]pyridine-2-carboxamide]
plasma corticosterone AUC0-2h (% of vehicle, mean±S.D.) [1]: 8.6 ± 2.4 % of vehicle

inhibition at 1 µM (human MC2R): 100%
Structure (SMILES): CCOc1ncccc1-c1ccc(N2C[C@H]3CN(c4ccc(Cl)cc4C(F)(F)F)C(=O)N3C[C@H]2CC)c(C(=O)N[C@@H]2CC(=O)N(C)C2)n1 [Example 49, 3-[(6R,8aS)-2-[4-chloro-2-(trifluoromethyl)phenyl]-6-ethyl-3-oxo-5,6,8,8a-tetrahydro-1H-imidazo[1,5-a]pyrazin-7-yl]-6-(2-ethoxypyridin-3-yl)-N-[(3R)-1-methyl-5-oxopyrrolidin-3-yl]pyridine-2-carboxamide]
plasma corticosterone AUC0-2h (% of vehicle, mean±S.D.) [1]: 7.7 ± 2.5 % of vehicle

inhibition at 1 µM (human MC2R): 100%
Structure (SMILES): CCOc1ncccc1-c1ccc(N2C[C@H]3CN(c4ccc(Cl)cc4C(F)(F)F)C(=O)N3C[C@H]2CC)c(C(=O)NCCNC(C)=O)n1 [Example 36, N-(2-acetamidoethyl)-3-[(6R,8aS)-2-[4-chloro-2-(trifluoromethyl)phenyl]-6-ethyl-3-oxo-5,6,8,8a-tetrahydro-1H-imidazo[1,5-a]pyrazin-7-yl]-6-(2-ethoxypyridin-3-yl)pyridine-2-carboxamide]

inhibition at 1 µM (human MC2R): 100%
Structure (SMILES): CCOc1ncccc1-c1ccc(N2C[C@H]3CN(c4ccc(Cl)cc4C(F)(F)F)C(=O)N3C[C@H]2CC)c(C(=O)NC[C@@H]2CCN2)n1 [Example 46, 3-[(6R,8aS)-2-[4-chloro-2-(trifluoromethyl)phenyl]-6-ethyl-3-oxo-5,6,8,8a-tetrahydro-1H-imidazo[1,5-a]pyrazin-7-yl]-N-[[(2S)-azetidin-2-yl]methyl]-6-(2-ethoxypyridin-3-yl)pyridine-2-carboxamide]

inhibition at 1 µM (human MC2R): 100%
Structure (SMILES): CCOc1ncccc1-c1ccc(N2C[C@H]3CN(c4ccc(Cl)cc4C(F)(F)F)C(=O)N3C[C@H]2CC)c(C(=O)NCC(=O)NC)n1 [Example 37, 3-[(6R,8aS)-2-[4-chloro-2-(trifluoromethyl)phenyl]-6-ethyl-3-oxo-5,6,8,8a-tetrahydro-1H-imidazo[1,5-a]pyrazin-7-yl]-6-(2-ethoxypyridin-3-yl)-N-[2-(methylamino)-2-oxoethyl]pyridine-2-carboxamide]
plasma corticosterone AUC0-2h (% of vehicle, mean±S.D.) [1]: 14.0 ± 1.8 % of vehicle
